# What was measured:
# [1] = tested on: AD1-8u^− derivative transformed with C. glabrata PDH1; assay: MIC, PDH1 construct; type: cell-based, S. cerevisiae; conditions: Nakaseomyces glabratus; PDH1 hyper-expressed
# Procedure: The MICs of antifungal agents for S. cerevisiae cells were determined by a microdilution test based on the macrodilution reference method of the National Committee for Clinical Laboratory Standards. Cells (10 μl cell suspension, 2×10^5 cells/ml) were inoculated into 90 μl CSM-URA, buffered with 10 mM 2-(N-morpholino)ethanesulfonic acid (MES) and 18 mM N-2-hydroxyethylpiperazine-N′-2-ethanesulfonic acid (HEPES), pH 7.0 and containing 0.67% (w/v) yeast nitrogen base (YNB) in microtitre plate wells. For the uracil-requiring strain AD1-8u^− the medium was supplemented with 0.02% (w/v) uridine. The wells contained, in […], doubling dilutions of antifungal agents (final concentrations: fluconazole, 40-0.078 μg/ml; itraconazole and ketoconazole, 8-0.016 μg/ml). The microtitre plates were incubated at 30° C. for 48 h with shaking and then the growth of cells in individual wells (OD590) was measured with a microplate reader (EL 340, Bio-Tek, Winooski, Vt.). The MIC80 was the lowest concentration of drug that inhibited growth yield by at least 80% compared to a no-drug control.
# Cdr1p ATPase = molecular target: T1, Cdr1p ATPase (Candida albicans, UniProt P43071, E1416A/I916V/K1177E/L1021S/Q214E/T842S/Y427F); assay: Oligomycin sensitive ATPase/NTPase activity of AD1002 plasma membranes; type: biochemical, C. albicans
# T1 construct: expressed in transfected cells; host or cells: S. cerevisiae AD1-8u- with pKEN1002 integrated at the PDR5 locus (strain AD1002), plasma membrane fraction
# Procedure: Membrane fractions were isolated from S. cerevisiae AD1002 (▪) or parental AD1-8u^− cells (●). ATPase assays were carried out at 30° C. for 30 min, as described in Materials and methods for Example 2. The oligomycin-sensitive activity was determined as the difference in ATPase activity in the presence and absence of 20 μM oligomycin. […] The results are the means (+/−SD) of four determinations carried out on two membrane preparations.
# (B) Inhibition profile with KN20 on the oligomycin-sensitive Cdr1p ATPase activity of plasma membranes from AD1002 minus the oligomycin-sensitive ATPase activity of plasma membranes from the isogenic AD1-8u^− strain.
# Yeast were grown in YEPD, pH 5.5 at 30° C. until they reached late-exponential phase of growth (OD600 nm=7), washed twice in ice-cold distilled water, and incubated on ice for 30 min to minimize glucose-stimulated Pma1p activity. Cells were resuspended in homogenising medium (50 mM Tris pH 7.5, 2 mM EDTA and 1 mM phenylmethylsulfonyl fluoride) and disrupted using a Braun Homogeniser. Cell debris and unbroken cells were removed by centrifuging at 2,000×g at 4° C. for 10 min. A crude membrane fraction was isolated from the cell-free supernatant by centrifuging at 30,000×g at 4° C. for 45 min. Plasma membranes were prepared by centrifugation of the supernatant obtained after selective precipitation of mitochondria at pH 5.2 as described previously (Goffeau, A. and Dufour, J. P., 1988). The plasma membranes were resuspended in 10 mM Tris pH 7.0, 0.5 mM EDTA and 20% [v/v] glycerol and stored at −80° C. Protein was determined using a micro-Bradford (Bio-Rad Laboratories, Hercules, Calif. [Bradford, M. M., 1976]) assay with gamma-globulin as standard. Nucleotide triphosphatase activity was measured by incubating the plasma membrane fractions (10 μg) at 30° C. in a final volume of 120 μl containing 6 mM NTP, 7 mM MgSO4 in 59 mM MES-Tris buffer pH 6.0-8.0. To eliminate possible contributions from nonspecific phosphatases, vacuolar, or mitochondrial ATPases, 0.2 mM ammonium molybdate, 50 mM KNO3 and 10 mM NaN3, respectively, were included in assays (Monk B C, et al, 1991). Other ATPase inhibitors (20 μM oligomycin, 20 μM aurovertin B or 100 μM vanadate were added to the reaction where indicated. After 30 min the reaction was stopped by adding 130 μl of a solution containing 1% (w/v) SDS, 0.6 M H2SO4, 1.2% (w/v) ammonium molybdate and 1.6% (w/v) ascorbic acid. Inorganic phosphate released from NTPs was measured at 750 nm after 10 min incubation at room temperature.
# [2] = tested on: AD124567 (Pdr5p-overexpressing); assay: Disk drug susceptibility assay of chemosensitisation to fluconazole; type: cell-based, S. cerevisiae; conditions: 120 μg/ml fluconazole, 47 nanomole peptide on disk
# Procedure: (A) Checkerboard drug susceptibility assay of AD124567 in the presence of the indicated concentrations of fluconazole and KN20. (B) Disk drug susceptibility assay of AD124567. This assay was conducted, as described in Materials and methods for example 4, in the absence or presence of fluconazole (120 μg/ml), and in the presence of (1) KN0 (47 nanomole), (2) KN20 (47 nanomole) or (0) control amounts of DMSO applied to disks
# Drug susceptibility was measured using disk assays on CSM-URA plates (containing 1.5% w/v agar). Plates were seeded with yeast cells suspended in top agar (5 ml, 10^5 cells/ml). For the uracil-dependent parental strain, agar was supplemented with 0.02% uridine. Five microliters of drug solution or solvent control were spotted onto sterile Whatman paper disks on the top agar. […]
# T1 sequence (P43071 whole entry Q214E/Y427F/T842S/I916V/L1021S/K1177E/E1416A): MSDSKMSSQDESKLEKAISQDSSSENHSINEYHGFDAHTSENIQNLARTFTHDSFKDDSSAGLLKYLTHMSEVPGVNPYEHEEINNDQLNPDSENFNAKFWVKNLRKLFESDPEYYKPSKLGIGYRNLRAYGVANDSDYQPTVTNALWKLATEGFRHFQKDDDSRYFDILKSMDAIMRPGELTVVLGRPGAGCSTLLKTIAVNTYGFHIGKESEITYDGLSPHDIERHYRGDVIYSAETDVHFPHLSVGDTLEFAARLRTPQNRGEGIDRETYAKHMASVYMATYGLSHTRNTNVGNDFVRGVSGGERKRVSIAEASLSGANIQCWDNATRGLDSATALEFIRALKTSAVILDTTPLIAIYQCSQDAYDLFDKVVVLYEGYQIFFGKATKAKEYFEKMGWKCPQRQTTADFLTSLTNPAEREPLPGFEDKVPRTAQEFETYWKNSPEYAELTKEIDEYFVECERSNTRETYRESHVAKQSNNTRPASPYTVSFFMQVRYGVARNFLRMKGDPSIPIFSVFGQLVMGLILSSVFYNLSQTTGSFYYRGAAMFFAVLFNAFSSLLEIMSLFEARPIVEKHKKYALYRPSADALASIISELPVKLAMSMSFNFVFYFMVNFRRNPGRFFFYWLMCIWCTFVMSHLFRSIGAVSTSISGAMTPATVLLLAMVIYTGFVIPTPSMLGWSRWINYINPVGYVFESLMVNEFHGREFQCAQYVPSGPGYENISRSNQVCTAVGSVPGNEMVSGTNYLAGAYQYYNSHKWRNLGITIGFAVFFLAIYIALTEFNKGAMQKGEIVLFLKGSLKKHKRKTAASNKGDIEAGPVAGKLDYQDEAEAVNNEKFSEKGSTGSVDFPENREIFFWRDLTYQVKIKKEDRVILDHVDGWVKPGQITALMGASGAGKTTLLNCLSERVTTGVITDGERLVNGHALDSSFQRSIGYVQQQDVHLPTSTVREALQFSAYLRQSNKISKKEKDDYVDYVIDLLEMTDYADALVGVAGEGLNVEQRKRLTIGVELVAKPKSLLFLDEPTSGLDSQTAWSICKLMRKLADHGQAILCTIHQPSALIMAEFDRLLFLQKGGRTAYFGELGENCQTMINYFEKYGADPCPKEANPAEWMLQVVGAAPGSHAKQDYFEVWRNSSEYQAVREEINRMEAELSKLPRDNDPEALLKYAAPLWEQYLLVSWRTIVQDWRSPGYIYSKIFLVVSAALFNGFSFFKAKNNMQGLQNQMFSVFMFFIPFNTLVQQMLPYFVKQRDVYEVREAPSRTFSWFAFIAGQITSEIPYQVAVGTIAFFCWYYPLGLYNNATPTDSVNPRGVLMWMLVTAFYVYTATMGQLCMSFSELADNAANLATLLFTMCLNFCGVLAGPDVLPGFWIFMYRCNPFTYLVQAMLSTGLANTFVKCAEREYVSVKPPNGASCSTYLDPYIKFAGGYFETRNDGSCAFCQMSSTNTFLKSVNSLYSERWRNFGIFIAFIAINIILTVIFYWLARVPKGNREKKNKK
Molecule,MIC [1] [µg/mL],effect on oligomycin sensitive Cdr1p ATPase activity (Cdr1p ATPase; in vitro),"IC50 (Cdr1p ATPase; AD1002 plasma membranes, read-out: 150 for oligomycin sensitive ATPase activity) [µM]",chemosensitisation to fluconazole in disk assay [2]
OC(Cn1cncn1)(Cn1cncn1)c1ccc(F)cc1F [fluconazole],200,does not affect,–,–
"D-octapeptide NH2-Asn-Trp-Trp-Lys-Val-Arg-Arg-Arg-CONH2 with a single 4-methoxy-2,3,6-trimethylbenzenesulphonyl (Mtr) substituent on one tryptophan sidechain; Pdr5p inhibitor [KN20]",–,–,~8,chemosensitisation

# Source: US8728797B2, “Yeast membrane protein expression system and its application in drug screening” (priority 2001, dated 2014)
